# Reference: patent publication US20130236904A1, “METHOD FOR SCREENING FOR MATERIALS FOR PROMOTING THE DIFFERENTIATION OF SKIN CELLS” (AMOREPACIFIC CORPORATION, priority 2010, published 2013)
# System: DUOX 1 gene
# Test: DUOX 1 gene expression by calcium concentration (Q-RT-PCR)
# Assay type: cell-based
# Conditions: normal human epidermal keratinocytes, 1.2 mM calcium (high calcium group) vs 120 μM (control), 24 hours; FIG. 1
# Procedure: Normal human epidermal keratinocytes (human epidermal neonatal keratinocyte cells) are purchased from Lonza, Inc. (Walkersville, Md., USA) and subcultured, and then incubated in a CO2 incubator under a condition of 37° C. and 5% CO2. Cell culture is prepared according to the instructions of Lonza, Inc. (Walkersville, Md., USA). KGM-2 bullet kit [bovine pituitary extract (BPE), 2 ml), human epidermal growth factor (hEGF, 0.5 ml), insulin (0.5 ml), hydrocortisone (0.5 ml), transferrin (0.5 ml), epinephrine (0.5 ml), gentamycin sulfate+amphofericin B (GA-1000, 0.5 ml)] are added to KBM-2 (Clonetics CC-3103) medium (500 ml).
# 120 μM and 1.2 mM Calcium are added to the culture medium of human epidermal keratinocytes, respectively, and the cells are incubated for 24 hours. Each of them is used as a low calcium group (control group) and a high calcium group (test group). […] The isolated RNA is purified once more using an RNA kit (Qiagen RNeasy kit, Qiagen, Valencia, Calif.) and RNA quality is verified using Agilent 2100 BioAnalyzer (Agilent Technologies, Santa Clara, Calif., USA). cDNA is synthesized from the isolated RNA using a reverse transcription kit (Superscript Reverse Transcriptase (RT) II kit, Invitrogen, Carlsbad, Calif.), and expression of various NOX genes is quantitatively analyzed by means of real time-reverse transcription polymerase chain reaction (Q-RT-PCR). […]
smiles,measurement,value
"[Ca+2] [calcium, Calcium]",expression of DUOX 1 gene,more remarkably increased
